Consider nine compounds from PMC4753070 (Bioorganic & medicinal chemistry letters, 2016).

Entries after “also recorded” stand apart in the source; their conditions may differ.

Data set [1] relates to histone H3K9 acetylation in mouse forebrain primary neuronal cultures. The data set is described as follows: Neuronal histone acetylation assay, H3K9ac immunofluorescence. The class given is cell-based. To be noted: 1 and 10 μM, 24 hrs, relative to SAHA.
Data set [2] has as its system histone H4K12 acetylation in mouse forebrain primary neuronal cultures. Description: Neuronal histone acetylation assay, H4K12ac immunofluorescence. Format: cell-based. To be noted: 1 and 10 μM, 24 hrs, relative to SAHA.
The test system of data set [3] is recombinant human HDAC1-3. The data set is described as follows: In vitro HDAC1-3 inhibition, potency comparison across the three isoforms. Format: biochemical.
For data set [4] the following is noted: mouse, intraperitoneal 25 mg/kg; cited from earlier work.
The target in data set [5] is HDAC5 (Homo sapiens, UniProt Q9UQL6). Description: In vitro HDAC5. The class given is biochemical.
HDAC5, sequence (Q9UQL6 whole entry, species assumed): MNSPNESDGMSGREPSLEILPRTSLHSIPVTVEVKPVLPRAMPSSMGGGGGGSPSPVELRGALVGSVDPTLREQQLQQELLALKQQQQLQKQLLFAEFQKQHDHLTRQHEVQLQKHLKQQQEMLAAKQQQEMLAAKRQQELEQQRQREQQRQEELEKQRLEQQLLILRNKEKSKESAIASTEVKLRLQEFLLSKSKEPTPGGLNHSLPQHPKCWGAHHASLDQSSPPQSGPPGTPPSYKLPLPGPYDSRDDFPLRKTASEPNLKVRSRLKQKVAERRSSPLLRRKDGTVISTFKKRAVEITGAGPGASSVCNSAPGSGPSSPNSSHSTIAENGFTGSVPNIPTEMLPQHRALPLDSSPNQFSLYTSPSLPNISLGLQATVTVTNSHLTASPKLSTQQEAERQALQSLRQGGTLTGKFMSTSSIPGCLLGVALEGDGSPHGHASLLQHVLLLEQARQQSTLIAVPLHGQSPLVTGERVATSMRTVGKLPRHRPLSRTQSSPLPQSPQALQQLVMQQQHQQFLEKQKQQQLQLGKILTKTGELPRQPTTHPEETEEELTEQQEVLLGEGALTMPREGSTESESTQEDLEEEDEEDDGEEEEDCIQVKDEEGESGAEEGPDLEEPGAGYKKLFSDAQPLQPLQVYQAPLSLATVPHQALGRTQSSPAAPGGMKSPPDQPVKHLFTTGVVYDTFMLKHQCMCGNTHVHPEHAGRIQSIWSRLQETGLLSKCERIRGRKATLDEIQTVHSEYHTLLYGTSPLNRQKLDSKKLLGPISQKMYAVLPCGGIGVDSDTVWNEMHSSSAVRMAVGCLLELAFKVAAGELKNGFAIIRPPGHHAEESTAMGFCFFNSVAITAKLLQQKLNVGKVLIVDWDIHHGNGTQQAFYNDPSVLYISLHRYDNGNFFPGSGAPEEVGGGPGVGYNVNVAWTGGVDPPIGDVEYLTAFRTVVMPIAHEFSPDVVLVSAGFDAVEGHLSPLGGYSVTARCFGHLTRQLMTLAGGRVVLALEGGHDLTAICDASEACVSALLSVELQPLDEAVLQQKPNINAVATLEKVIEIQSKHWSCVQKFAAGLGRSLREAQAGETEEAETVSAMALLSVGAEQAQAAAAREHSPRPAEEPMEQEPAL
Data set [6] can be described thus: Mouse plasma pharmacokinetics and brain-to-plasma ratio. The class given is in vivo.

In the case of `NNC(=O)CCCCC(=O)NO` [Compound 3a], the “induction of histone H3K9 acetylation (H3K9ac)” value (shortened to “induction … (H3K9ac)”) in data set [1] was “No induction”. For the same compound, the “induction of histone H4K12 acetylation (H4K12ac)” value (shortened to “induction … (H4K12ac)”) in data set [2] is recorded as “No induction”.

In the case of `NNC(=O)CCCCCC(=O)NO` [Compound 3b], the “induction … (H3K9ac)” value in data set [1] was “No induction”. The “induction … (H4K12ac)” value in data set [2] is listed as “No induction”.

Consider `NNC(=O)CCCCCCC(=O)NO` [Compound 7], for which the “induction … (H3K9ac)” value in data set [1] was “No induction”. For the same compound, the “induction … (H4K12ac)” value in data set [2] is “No induction”.

Consider `O=C(CCCCC(=O)N/N=C/c1ccc(-c2ccccc2)cc1)NO` [Compound 9a], for which the “fold increase in IC50's over those of crebinostat (9b)” value in data set [3] (HDAC1, 2 or 3) is “approximately 20 fold”.

For the compound `O=C(CCCCCC(=O)N/N=C/c1ccc(-c2ccccc2)cc1)NO` [Compound 9b, crebinostat], the “induction … (H3K9ac)” value in data set [1] is given as “greater increases; also recorded: more effective”. The “brain Cmax” value in data set [4] was 60 nM. Moreover, the “induction … (H4K12ac)” value in data set [2] was “greater increases; also recorded: more effective”. For the same compound, in data set [5], the “activity toward HDAC5” value is on record as “no activity”. Besides, the “fold reduction in IC50 versus SAHA” value in data set [3] (HDAC1, 2 or 3) is recorded as over 5 fold.

With `O=C(CCCCCCC(=O)N/N=C/c1ccc(-c2ccccc2)cc1)NO` [Compound 9c], the “induction … (H3K9ac)” value in data set [1] is reported as “greater increases”. The “induction … (H4K12ac)” value in data set [2] was “greater increases”. Also, the “fold improved potency for inhibiting HDAC1-3 versus crebinostat (9b)” value in data set [3] (HDAC1-3, biochemical reaction) is ~ 2 fold.

On to `O=C(CCCCCC(=O)N/N=C/c1ccc(-c2cccnc2)cc1)NO` [Compound 9f, neurinostat], for which the “induction … (H3K9ac)” value in data set [1] is “most potent”. In data set [6] (intraperitoneal 25 mg/kg, peripheral blood), the plasma maximum concentration is 1.9 µM. Besides, in data set [6] (time points 0.5, 1 and 2 hours), the “brain-to-plasma ratios relative to those measured for crebinostat (9b)” value is recorded as “about twice”. Moreover, the “induction … (H4K12ac)” value in data set [2] is “most potent”. Moreover, the “activity toward HDAC5” value in data set [5] is recorded as “no activity”.

In the case of `COc1ccc(Br)c(/C=N/NC(=O)CCCCCC(=O)NO)c1` [Compound 9j], the “induction … (H3K9ac)” value in data set [1] is “more effective”. In data set [2], the “induction … (H4K12ac)” value was “more effective”.

With `COc1cc(O)cc(OC)c1/C=N/NC(=O)CCCCCC(=O)NO` [Compound 9k], the “induction … (H3K9ac)” value in data set [1] is given as “least potent”. The “induction … (H4K12ac)” value in data set [2] was “least potent”.
